The text below walks through data of the NIST ThermoML archive (doi:10.1021/je050029o).

Numbers after ± are expanded uncertainties.

For this data set the following is noted: 298.15 K; 101.33 kPa; Liquid; Pycnometric method.
As to `COC(C)(C)C` [2-methoxy-2-methylpropane], the mass density was determined as 740.6 ± 1.7 kg/m3.

`CCCCCCC` [heptane]: the mass density worked out at 679.5 ± 0.6 kg/m3.

Regarding `CO` [methanol], the mass density was determined as 786.8 ± 0.7 kg/m3.

For the compound `CC1CCCCC1` [methylcyclohexane], the mass density is recorded as 765.2 ± 0.7 kg/m3.
